In PMC5153397 (EJNMMI Research, 2016):
Read-outs that look alike come from different tables or passages of the source. Blank lines part the entries; values can stand above or below the substance they belong to.

Columns and labels:
[1] = cited from earlier work
Source text: Table 3 Absorbed kidney dose and effective dose of ^18F-labeled tracer and metal-labeled exendin PET and SPECT tracers | column: Kidney dose [mSv/MBq]; Effective dose [mSv/MBq]

[2] = parameters: method as in PMID 12629557; conditions: rat; cited from earlier work
GLP-1R in the islets [3] = target: T1, GLP-1R in the islets (Homo sapiens, UniProt P43220); assay: In vitro binding in human pancreas sections (autoradiography); conditions: human pancreatic tissue sections
T1 construct: We acquired a piece of human pancreas that was frozen immediately after surgery; from tissue; host or cells: human pancreas, frozen surgical specimen, sections
Description: (§1) We acquired a piece of human pancreas that was frozen immediately after surgery. We dissected a rat pancreas and brain and froze them immediately after dissection. Prior to incubations with ligand, the tissue sections of human and rat pancreas and GLP-1R-rich areas from rat brain [19] were incubated for 30 min with 1% BSA in PBS (pH 7.4). Then, sections were incubated for 60 min with various concentrations of [^18F]exendin-4 (range 2.5–20 nM) in vitro. To investigate tracer specificity, sections were incubated for 30 min with an excess of cold exendin-3 prior to adding [^18F]exendin-4. Sections were then washed and exposed to imaging plates, as described above (ex vivo autoradiography). Next, sections were stained and processed, as described above.

[4] = pig, in vivo
Description: In addition, the stability of [^18F]exendin-4 was determined in pig plasma. Prior to blood sampling, animals were anesthetized (midazolam 1 mg/kg, xylazine 4 mg/kg intramuscular), connected to a respirator, and ventilated mechanically. Anesthesia was maintained with an i.v. infusion of propofol (10–20 mg/kg/h) and fentanyl (4–8 μg/kg/h). Vital signs were monitored throughout the study. Pigs were injected (radioactivity 1.2 ± 0.2 MBq/kg, mass 0.14 ± 0.04 μg/kg) and blood was sampled at 5, 15, 30, 60, and 180 min p.i. (N = 3 samples/time point). Plasma was treated and analyzed as described above.

[5] = target: T2, GLP1-R-rich areas of rat brain (Rattus norvegicus, UniProt P32301); conditions: in vivo
T2 construct: We dissected a rat pancreas and brain and froze them immediately after dissection; from tissue; host or cells: rat brain (GLP-1R-rich areas): in vivo injection with ex vivo read-out, and frozen sections in vitro
T2 sequence (P32301 22-463): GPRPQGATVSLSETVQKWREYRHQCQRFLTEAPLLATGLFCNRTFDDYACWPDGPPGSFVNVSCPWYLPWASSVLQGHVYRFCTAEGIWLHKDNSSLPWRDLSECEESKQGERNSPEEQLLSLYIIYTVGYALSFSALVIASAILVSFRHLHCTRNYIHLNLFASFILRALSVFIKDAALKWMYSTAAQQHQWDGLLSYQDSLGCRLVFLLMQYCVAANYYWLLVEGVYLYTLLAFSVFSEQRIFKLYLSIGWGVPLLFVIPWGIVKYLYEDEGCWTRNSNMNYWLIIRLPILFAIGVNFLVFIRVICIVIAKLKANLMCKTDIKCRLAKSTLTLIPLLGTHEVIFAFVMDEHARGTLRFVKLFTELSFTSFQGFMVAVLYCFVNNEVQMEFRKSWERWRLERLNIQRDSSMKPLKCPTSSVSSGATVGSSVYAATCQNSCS
Description: The in vivo kinetics of [^18F]exendin-4 were evaluated with the Inveon Multimodality PET/CT scanner (Siemens, Knoxville, TN, USA). Rats were anesthetized with isoflurane/O2 and injected intravenously (i.v.) with [^18F]exendin-4 (radioactivity 23 ± 5 MBq/kg, mass 2 ± 1 μg/kg). PET scans were acquired for up to 6 h (dynamic 0–60 min; static 210–240 min and 330–360 min; N = 2–5 rats/scan). The data were reconstructed with the ordered subset expectation maximization OSEM2D algorithm. Analyses were performed with Inveon Research Workplace 3 software (Siemens), after defining the volumes of interest (VOIs) on selected tissues.
Rats were anesthetized with isoflurane/O2 and injected (i.v.) with [^18F]exendin-4 (radioactivity 23 ± 5 MBq/kg, mass 2 ± 1 μg/kg). […] Tissue radioactivity was measured with a γ-counter (Wizard, PerkinElmer, Turku, Finland). […] Measurements were corrected for radionuclide decay, and results were reported as the percentage of the injected dose of radioactivity per gram of tissue (%ID/g).
The kidney, pancreas, and brain were sectioned and exposed to imaging plates (Fuji BAS-TR2025; Fuji Photo Film Co., Tokyo, Japan) for approximately 4 h. Imaging plates were scanned with a BAS-5000 scanner (Fuji Photo Film Co.) and the images were analyzed with AIDA 4.5 software (Raytest, Isotopenmessgeräte, Straubenhardt, Germany). […] Finally, the islet-to-exocrine tissue ratio was calculated. […]

GLP-1R in the islets [6] = target: T3, GLP-1R in the islets (Rattus norvegicus, UniProt P32301); assay: Ex vivo autoradiography of rat pancreas; type: in vivo
T3 construct: We dissected a rat pancreas and brain and froze them immediately after dissection; from tissue; host or cells: rat pancreas (islets): in vivo injection followed by ex vivo autoradiography, and frozen sections in vitro
T3 sequence (P32301 22-463): T2 sequence (P32301 22-463)
Description: Rats were anesthetized with isoflurane/O2 and injected (i.v.) with [^18F]exendin-4 (radioactivity 23 ± 5 MBq/kg, mass 2 ± 1 μg/kg). After injection, animals were allowed to recover from the anesthesia (except animal sacrificed 15 min p.i.). We further investigated tracer distribution in the brain by injecting one rat with a highly radioactive dose (50 MBq) of [^18F]exendin-4. Animals were sacrificed at 15, 30, 60, 120, 240, and 360 min (N = 2–11 rats/time point). Blood was extracted, and selected organs were dissected and weighed. Tissue radioactivity was measured with a γ-counter (Wizard, PerkinElmer, Turku, Finland). Tracer specificity was tested by co-injecting radiolabeled exendin-4 with an excess of cold exendin-3 (3 mg/kg) (Peptide Specialty Laboratories GmbH). Measurements were corrected for radionuclide decay, and results were reported as the percentage of the injected dose of radioactivity per gram of tissue (%ID/g).
The kidney, pancreas, and brain were sectioned and exposed to imaging plates (Fuji BAS-TR2025; Fuji Photo Film Co., Tokyo, Japan) for approximately 4 h. Imaging plates were scanned with a BAS-5000 scanner (Fuji Photo Film Co.) and the images were analyzed with AIDA 4.5 software (Raytest, Isotopenmessgeräte, Straubenhardt, Germany). Three pancreatic sections per rat were analyzed (N = 2–8 rats/time point). We determined the mean density values (photostimulated luminescence per square millimeter, PSL/mm^2) of ten prominently labeled islets and of the exocrine tissue and corrected for background noise. Finally, the islet-to-exocrine tissue ratio was calculated. […] The pancreatic sections used for autoradiography were then stained with insulin antibody (1’ mouse-anti-insulin, Nordic Biosite, Täby, Sweden, 2’ MAHC1 mouse probe, Biocare Medical, Concord, CA, USA), counterstained with hematoxylin, and imaged with a Slide Scanner (Pannoramic 250 F, 3DHistech, Budapest, Hungary).

[7] = parameters: species or system human
Description: Absorbed doses were calculated with OLINDA/EXM1.0 software, which includes radionuclide information and a selection of human body phantoms. Rat ex vivo biodistributions were estimated by integrating the area under the time–activity curves. The obtained residence times were converted into corresponding human values by multiplying with organ-specific factors that scaled organs to body weights, as follows: (W TB,rat/W Organ,rat) × (W Organ,human/W TB,human), where W TB,rat and W TB,human are the total body weights of rats and humans (70-kg male), respectively; and W Organ,rat and W Organ,human are the organ weights of rats and humans (70-kg male), respectively.

[8] = target: T4, GLP-1R in pancreatic islets (Rattus norvegicus, UniProt P32301); assay: In vitro binding in rat pancreas sections (autoradiography)
T4 construct: We dissected a rat pancreas and brain and froze them immediately after dissection; from tissue; host or cells: rat pancreas (islets): in vivo injection followed by ex vivo autoradiography, and frozen sections in vitro
T4 sequence (P32301 22-463): T2 sequence (P32301 22-463)
Description: as §1

[9] = target: T5, GLP-1R-rich areas from rat brain (Rattus norvegicus, UniProt P32301); assay: In vitro binding in rat brain sections (autoradiography); conditions: lateral septum, 1.25 nM (Fig. 7)
T5 construct: We dissected a rat pancreas and brain and froze them immediately after dissection; from tissue; host or cells: rat brain (GLP-1R-rich areas): in vivo injection with ex vivo read-out, and frozen sections in vitro
T5 sequence (P32301 22-463): T2 sequence (P32301 22-463)
Description: as §1, with “Then, sections were incubated for 60 min with various concentrations of [^18F]exendin-4 (range 2.5–20 nM) in vitro.” left out

T1 sequence (P43220 24-463): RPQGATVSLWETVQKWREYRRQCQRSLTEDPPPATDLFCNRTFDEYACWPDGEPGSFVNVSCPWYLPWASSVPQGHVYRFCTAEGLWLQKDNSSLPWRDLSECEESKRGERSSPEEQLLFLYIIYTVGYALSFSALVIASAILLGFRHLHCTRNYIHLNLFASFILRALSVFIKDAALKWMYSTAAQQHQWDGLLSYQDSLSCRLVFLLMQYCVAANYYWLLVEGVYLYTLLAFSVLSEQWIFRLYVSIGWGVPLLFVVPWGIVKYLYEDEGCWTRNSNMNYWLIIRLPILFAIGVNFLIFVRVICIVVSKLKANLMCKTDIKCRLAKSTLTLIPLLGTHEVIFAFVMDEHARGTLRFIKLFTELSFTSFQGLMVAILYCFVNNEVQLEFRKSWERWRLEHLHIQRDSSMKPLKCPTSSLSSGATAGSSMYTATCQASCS

Substance: [^64Cu]NODAGA-exendin-4: metal-labeled exendin PET tracer, ref 3
- Effective dose [1]: 0.074 mSv/MBq
- Kidney dose [1]: 1.48 mSv/MBq

Substance: exendin-4
- blood–brain barrier crossing [2]: crossed the blood–brain barrier

Substance: [^111In]DTPA-exendin-4: metal-labeled exendin SPECT tracer
- Effective dose [1]: 0.155 mSv/MBq
- Kidney dose [1]: 4.48 mSv/MBq

- tracer binding in human pancreatic islets with blocking (GLP-1R in the islets [3]; excess cold exendin-3 added): no [^18F]exendin-4 binding was observed
- tracer binding in human pancreatic islets (GLP-1R in the islets [3]; various concentrations (2.5–20 nM), 60 min, autoradiography, verified by insulin immunostaining): clearly visible
- body temperature after administration [4]: 41 °C
- blood–brain barrier crossing [5]: did not cross the blood–brain barrier
- islet labeling with blocking (GLP-1R in the islets [6]; co-injected with excess cold exendin-3, ex vivo autoradiography): not visible
- islet-to-exocrine tissue ratio (GLP-1R in the islets [6]; ex vivo autoradiography, PSL/mm^2 of ten islets vs exocrine tissue, N = 2–8 rats/time point): increased over time
- tracer uptake in pancreatic islets (GLP-1R in the islets [6]; i.v., ex vivo autoradiography, 60 min p.i. (Fig. 5a), verified by insulin staining): tracer uptake was observed
- Effective dose [7]: 0.021 mSv/MBq
- absorbed radiation dose, LLI (lower large intestine) wall [7]: 0.003 mSv/MBq
- absorbed radiation dose, ULI (upper large intestine) wall [7]: 0.005 mSv/MBq
- absorbed radiation dose, adrenal glands [7]: 0.016 mSv/MBq
- absorbed radiation dose, brain [7]: 0.004 mSv/MBq
- absorbed radiation dose, breasts [7]: 0.004 mSv/MBq
- absorbed radiation dose, gallbladder wall [7]: 0.011 mSv/MBq
- absorbed radiation dose, heart wall [7]: 0.010 mSv/MBq
- absorbed radiation dose, liver [7]: 0.026 mSv/MBq
- absorbed radiation dose, lungs [7]: 0.071 mSv/MBq
- absorbed radiation dose, muscle [7]: 0.005 mSv/MBq
- absorbed radiation dose, osteogenic cells [7]: 0.045 mSv/MBq
- absorbed radiation dose, ovaries [7]: 0.003 mSv/MBq
- absorbed radiation dose, pancreas [7]: 0.023 mSv/MBq
- absorbed radiation dose, red bone marrow [7]: 0.009 mSv/MBq
- absorbed radiation dose, skin [7]: 0.003 mSv/MBq
- absorbed radiation dose, small intestine [7]: 0.005 mSv/MBq
- absorbed radiation dose, spleen [7]: 0.022 mSv/MBq
- absorbed radiation dose, stomach wall [7]: 0.007 mSv/MBq
- absorbed radiation dose, testes [7]: 0.001 mSv/MBq
- absorbed radiation dose, thymus [7]: 0.005 mSv/MBq
- absorbed radiation dose, thyroid [7]: 0.003 mSv/MBq
- absorbed radiation dose, total body [7]: 0.009 mSv/MBq
- absorbed radiation dose, urinary bladder wall [7]: 0.002 mSv/MBq
- absorbed radiation dose, uterus [7]: 0.003 mSv/MBq
- islet labeling in vitro ([8]; 60 min incubation, 2.5 nM (Fig. 6), autoradiography): islet labeling was observed
- islet labeling in vitro with blocking ([8]; excess of cold exendin-3 added): not detected
- labeling of GLP-1R areas in brain in vitro [9]: clearly labeled
Substance: ^18F-labeled [Nle^14,Lys^40]exendin-4 [[^18F]exendin-4]
- arrhythmia after administration [4]: arrhythmia was observed
- blood pressure after administration [4]: decreased
- heart rate after administration [4]: 230–250 beats/min
